Experiments:
Assay in all cases: Test B pre-/postemergence plant response
Type in all cases: in vivo
[1] = tested on: Surinam grass (Brachiaria decumbens)
Procedure, shortened: (§1)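 Seeds were sown in loam soil/sand blend and treated preemergence with compound in non-phytotoxic solvent mixture containing surfactant; postemergence sprays, same formulation, went onto plants 2 to 18 cm (1- to 4-leaf stage) in peat-based planting medium. Greenhouse 13 to 15 days, then visual rating versus untreated controls, 0 (no effect) to 100 (complete control).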

[2] = tested on: cocklebur (Xanthium strumarium)
Procedure, shortened: as §1

[3] = tested on: galium (catchweed bedstraw, Galium aparine); conditions: Preemergence
Procedure, shortened: as §1

kochia (Kochia scoparia) = tested on: kochia (Kochia scoparia)
Procedure, shortened: as §1

[4] = tested on: lambsquarters (Chenopodium album)
Procedure, shortened: as §1

[5] = tested on: large crabgrass (Digitaria sanguinalis)
Procedure, shortened: as §1

[6] = tested on: nightshade (eastern black nightshade, Solanum ptycanthum); conditions: Preemergence
Procedure, shortened: as §1

[7] = tested on: sunflower (common oilseed sunflower, Helianthus annuus); conditions: Preemergence
Procedure, shortened: as §1

wild oat (Avena fatua) = tested on: wild oat (Avena fatua)
Procedure, shortened: as §1

[8] = tested on: woolly cupgrass (Eriochloa villosa)
Procedure, shortened: as §1

[9] = tested on: yellow nutsedge (Cyperus esculentus)
Procedure, shortened: as §1

[10] = 31 g ai/ha, postemergence, scale 0 to 100, 0 is no effect, 100 is complete control
[11] = Postemergence, 62 g ai/ha, scale 0 (no effect) to 100 (complete control), 13 to 15 days
[12] = Postemergence, 125 g ai/ha, visual rating after 13 to 15 days, scale 0 (no effect) to 100 (complete control)
[13] = Postemergence, 250 g ai/ha, scale 0 to 100 (0 no effect, 100 complete control)
[14] = Preemergence, 31 g ai/ha, scale 0 to 100 (0 no effect, 100 complete control)
[15] = Preemergence, 62 g ai/ha, scale 0 to 100, 0 no effect, 100 complete control
[16] = Preemergence, 125 g ai/ha, scale 0 to 100, 0 no effect, 100 complete control
[17] = 250 g ai/ha, Preemergence, 0 to 100 scale
[18] = 31 g ai/ha, scale 0 to 100 (0 no effect, 100 complete control)
[19] = 62 g ai/ha, scale 0 to 100, 0 no effect, 100 complete control
[20] = 125 g ai/ha, scale 0 to 100, 0 no effect, 100 complete control
[21] = 62 g ai/ha, postemergence, 0 is no effect, 100 is complete control, 13 to 15 days

For `O=C1CCCC(O)=C1C(=O)c1cnc(-c2cccs2)n(-c2ccccc2)c1=O` [Compound 66], the “Plant response rating, Surinam Grass” value [1, 10] was 65, the “Plant response rating, Surinam Grass” value [1, 11] was 70 and the “Plant response rating, Surinam Grass” value [1, 12] was 85. The “Plant response rating, Surinam Grass” value [1, 13] was 98, the “Plant response rating, Surinam Grass” value [1, 14] was 35 and the “Plant response rating, Surinam Grass” value [1, 15] was 80. The “Plant response rating, Surinam Grass” value [1, 16] was 90, the “Plant response rating, Cocklebur” value [2, 10] was 10 and the “Plant response rating, Cocklebur” value [2, 17] was 0. For the same compound, the “Plant response rating, Cocklebur” value [2, 11] was 10, the “Plant response rating, Cocklebur” value [2, 12] was 25 and the “Plant response rating, Cocklebur” value [2, 13] was 45. For the same compound, the “Plant response rating, Cocklebur” value [2, 14] was 0, the “Plant response rating, Cocklebur” value [2, 15] was 0 and the “Plant response rating, Cocklebur” value [2, 16] was 0. The “Plant response rating, Galium” value ([3]; 250 g ai/ha, 0 to 100 scale) was 0, the “Plant response rating, Galium” value [3, 18] was 0 and the “Plant response rating, Galium” value [3, 19] was 0. For the same compound, the “Plant response rating, Galium” value [3, 20] was 0, the “Plant response rating, Kochia” value (kochia (Kochia scoparia); [10]) was 80 and the “Plant response rating, Kochia” value (kochia (Kochia scoparia); [17]) was 85. For the same compound, the “Plant response rating, Kochia” value (kochia (Kochia scoparia); [11]) was 85, the “Plant response rating, Kochia” value (kochia (Kochia scoparia); [12]) was 90 and the “Plant response rating, Kochia” value (kochia (Kochia scoparia); [13]) was 98. The “Plant response rating, Kochia” value (kochia (Kochia scoparia); [14]) was 80, the “Plant response rating, Kochia” value (kochia (Kochia scoparia); [15]) was 80 and the “Plant response rating, Kochia” value (kochia (Kochia scoparia); [16]) was 85. The “Plant response rating, Lambsquarters” value [4, 10] was 95, the “Plant response rating, Lambsquarters” value [4, 17] was 100 and the “Plant response rating, Lambsquarters” value [4, 11] was 95. The “Plant response rating, Lambsquarters” value [4, 12] was 95, the “Plant response rating, Lambsquarters” value [4, 13] was 100 and the “Plant response rating, Lambsquarters” value [4, 14] was 98. For the same compound, the “Plant response rating, Lambsquarters” value [4, 15] was 98, the “Plant response rating, Lambsquarters” value [4, 16] was 98 and the “Plant response rating, Crabgrass, Large” value [5, 10] was 50. For the same compound, the “Plant response rating, Crabgrass, Large” value [5, 17] was 100, the “Plant response rating, Crabgrass, Large” value [5, 11] was 55 and the “Plant response rating, Crabgrass, Large” value [5, 12] was 65. For the same compound, the “Plant response rating, Crabgrass, Large” value [5, 13] was 70, the “Plant response rating, Crabgrass, Large” value [5, 14] was 70 and the “Plant response rating, Crabgrass, Large” value [5, 15] was 85. The “Plant response rating, Crabgrass, Large” value [5, 16] was 95, the “Plant response rating, Nightshade” value [6, 18] was 80 and the “Plant response rating, Nightshade” value [6, 19] was 95. For the same compound, the “Plant response rating, Nightshade” value [6, 20] was 98, the “Plant response rating, Sunflower” value [7, 18] was 0 and the “Plant response rating, Sunflower” value [7, 19] was 0. For the same compound, the “Plant response rating, Sunflower” value [7, 20] was 0, the “Plant response rating, Oat, Wild” value (wild oat (Avena fatua); [10]) was 0 and the “Plant response rating, Oat, Wild” value (wild oat (Avena fatua); [11]) was 0. For the same compound, the “Plant response rating, Oat, Wild” value (wild oat (Avena fatua); [12]) was 5, the “Plant response rating, Oat, Wild” value (wild oat (Avena fatua); [13]) was 10 and the “Plant response rating, Oat, Wild” value (wild oat (Avena fatua); [14]) was 0. The “Plant response rating, Oat, Wild” value (wild oat (Avena fatua); [15]) was 0, the “Plant response rating, Oat, Wild” value (wild oat (Avena fatua); [16]) was 0 and the “Plant response rating, Cupgrass, Woolly” value [8, 10] was 40. For the same compound, the “Plant response rating, Cupgrass, Woolly” value [8, 17] was 75, the “Plant response rating, Cupgrass, Woolly” value [8, 11] was 40 and the “Plant response rating, Cupgrass, Woolly” value [8, 12] was 60. For the same compound, the “Plant response rating, Cupgrass, Woolly” value [8, 13] was 75, the “Plant response rating, Cupgrass, Woolly” value [8, 14] was 25 and the “Plant response rating, Cupgrass, Woolly” value [8, 15] was 40. For the same compound, the “Plant response rating, Cupgrass, Woolly” value [8, 16] was 60, the “Plant response rating, Nutsedge, Yellow” value [9, 10] was 25 and the “Plant response rating, Nutsedge, Yellow” value [9, 11] was 45. The “Plant response rating, Nutsedge, Yellow” value [9, 12] was 65, the “Plant response rating, Nutsedge, Yellow” value [9, 13] was 70 and the “Plant response rating, Nutsedge, Yellow” value [9, 14] was 10. The “Plant response rating, Nutsedge, Yellow” value [9, 15] was 30 and the “Plant response rating, Nutsedge, Yellow” value [9, 16] was 85.

With `CC(C)Cc1ncc(C(=O)C2=C(O)CCCC2=O)c(=O)n1-c1ccccc1` [Compound 68] the “Plant response rating, Surinam Grass” value [1, 10] was 25, the “Surinam Grass plant response rating (0 to 100 scale)” value [1, 21] was 55 and the “Plant response rating, Surinam Grass” value [1, 12] was 70. For the same compound, the “Plant response rating, Surinam Grass” value [1, 13] was 90, the “Plant response rating, Surinam Grass” value [1, 14] was 45 and the “Plant response rating, Surinam Grass” value [1, 15] was 50. The “Plant response rating, Surinam Grass” value [1, 16] was 55, the “Plant response rating, Cocklebur” value [2, 10] was 25 and the “Cocklebur plant response rating (0 to 100 scale)” value [2, 21] was 75. For the same compound, the “Plant response rating, Cocklebur” value [2, 17] was 80, the “Plant response rating, Cocklebur” value [2, 12] was 90 and the “Plant response rating, Cocklebur” value [2, 13] was 90. For the same compound, the “Plant response rating, Cocklebur” value [2, 14] was 0, the “Plant response rating, Cocklebur” value [2, 15] was 10 and the “Plant response rating, Galium” value ([3]; 250 g ai/ha, 0 to 100 scale) was 85. The “Plant response rating, Galium” value [3, 18] was 0, the “Plant response rating, Galium” value [3, 19] was 70 and the “Plant response rating, Galium” value [3, 20] was 70. For the same compound, the “Plant response rating, Kochia” value (kochia (Kochia scoparia); [10]) was 70, the “Kochia plant response rating (0 to 100 scale)” value (kochia (Kochia scoparia); [21]) was 90 and the “Plant response rating, Kochia” value (kochia (Kochia scoparia); [17]) was 95. For the same compound, the “Plant response rating, Kochia” value (kochia (Kochia scoparia); [12]) was 95, the “Plant response rating, Kochia” value (kochia (Kochia scoparia); [13]) was 98 and the “Plant response rating, Kochia” value (kochia (Kochia scoparia); [14]) was 80. The “Plant response rating, Kochia” value (kochia (Kochia scoparia); [15]) was 80, the “Plant response rating, Kochia” value (kochia (Kochia scoparia); [16]) was 95 and the “Plant response rating, Lambsquarters” value [4, 10] was 95. For the same compound, the “Lambsquarters plant response rating (0 to 100 scale)” value [4, 21] was 98, the “Plant response rating, Lambsquarters” value [4, 17] was 100 and the “Plant response rating, Lambsquarters” value [4, 12] was 100. The “Plant response rating, Lambsquarters” value [4, 13] was 100, the “Plant response rating, Lambsquarters” value [4, 14] was 98 and the “Plant response rating, Lambsquarters” value [4, 15] was 98. The “Plant response rating, Lambsquarters” value [4, 16] was 98, the “Plant response rating, Crabgrass, Large” value [5, 10] was 75 and the “Crabgrass, Large plant response rating (0 to 100 scale)” value [5, 21] was 90. For the same compound, the “Plant response rating, Crabgrass, Large” value [5, 17] was 100, the “Plant response rating, Crabgrass, Large” value [5, 12] was 90 and the “Plant response rating, Crabgrass, Large” value [5, 13] was 98. For the same compound, the “Plant response rating, Crabgrass, Large” value [5, 14] was 65, the “Plant response rating, Crabgrass, Large” value [5, 15] was 95 and the “Plant response rating, Crabgrass, Large” value [5, 16] was 98. For the same compound, the “Plant response rating, Nightshade” value [6, 18] was 98, the “Plant response rating, Nightshade” value [6, 19] was 98 and the “Plant response rating, Nightshade” value [6, 20] was 100. The “Plant response rating, Sunflower” value [7, 18] was 0, the “Plant response rating, Sunflower” value [7, 19] was 60 and the “Plant response rating, Sunflower” value [7, 20] was 75. For the same compound, the “Plant response rating, Oat, Wild” value (wild oat (Avena fatua); [10]) was 5, the “Oat, Wild plant response rating (0 to 100 scale)” value (wild oat (Avena fatua); [21]) was 20 and the “Plant response rating, Oat, Wild” value (wild oat (Avena fatua); [12]) was 50. For the same compound, the “Plant response rating, Oat, Wild” value (wild oat (Avena fatua); [13]) was 70, the “Plant response rating, Oat, Wild” value (wild oat (Avena fatua); [14]) was 0 and the “Plant response rating, Oat, Wild” value (wild oat (Avena fatua); [15]) was 0. For the same compound, the “Plant response rating, Oat, Wild” value (wild oat (Avena fatua); [16]) was 0, the “Plant response rating, Cupgrass, Woolly” value [8, 10] was 10 and the “Cupgrass, Woolly plant response rating (0 to 100 scale)” value [8, 21] was 10. For the same compound, the “Plant response rating, Cupgrass, Woolly” value [8, 17] was 85, the “Plant response rating, Cupgrass, Woolly” value [8, 12] was 55 and the “Plant response rating, Cupgrass, Woolly” value [8, 13] was 75. The “Plant response rating, Cupgrass, Woolly” value [8, 14] was 5, the “Plant response rating, Cupgrass, Woolly” value [8, 15] was 20 and the “Plant response rating, Cupgrass, Woolly” value [8, 16] was 55. For the same compound, the “Plant response rating, Nutsedge, Yellow” value [9, 10] was 0, the “Nutsedge, Yellow plant response rating (0 to 100 scale)” value [9, 21] was 10 and the “Plant response rating, Nutsedge, Yellow” value [9, 12] was 70. For the same compound, the “Plant response rating, Nutsedge, Yellow” value [9, 13] was 80, the “Plant response rating, Nutsedge, Yellow” value [9, 14] was 0 and the “Plant response rating, Nutsedge, Yellow” value [9, 15] was 70. For the same compound, the “Plant response rating, Nutsedge, Yellow” value [9, 16] was 85.
